Here are results for four compounds from patent US20220267271A1, “WNT ACTIVATORS AND METHODS OF USE” (MAYO FOUNDATION FOR MEDICAL EDUCATION AND RESEARCH, priority 2019, published 2022).

One data set deals with β-catenin. As to the kind of experiment: β-catenin level in N2a cells by Western blotting. In kind it is cell-based. To be noted: 24 h; for β-catenin level: concentration as low as 0.1 μM; for EC50: Mus musculus, 3-4 independent experiments, read-out: EC50 values (X±SD), β-catenin level. The protocol:
(A,C) N2a cells were treated with CI-994 at the indicated concentration for 24 h, and the levels of β-catenin (A) and BACE1 (C) were examined by Western blotting. (B,D) The band intensity of β-catenin and BACE1 was quantified and normalized to the corresponding signal for actin. The results represented in the histograms are shown as the mean±SD and are the average of three independent experiments. *P<0.05, **P<0.01 versus corresponding control value.
N2a cells were treated with 1015, 1011, or 1020 at the indicated concentration for 24 h. (A) the levels of total cellular β-catenin were examined by Western blotting. (B) The intensity of the β-catenin bands were quantified and normalized to the corresponding signal for actin. The results represented in the histograms are shown as the mean±SD and are the average of 3-4 independent experiments, and the EC50 values were calculated with graphpad prism.
Western blotting: Cells in 6-well plates were lysed in 0.5 ml of lysis buffer (phosphate-buffered saline containing 1% Triton X-100, 1× Proteinase inhibitor cocktail Complete, and 1 mM PMSF) at 4° C. for 15 min. Equal quantities of protein were subjected to SDS-PAGE under reducing conditions. Following transfer to immobilon-P transfer membrane, successive incubations with a primary antibody, and a horseradish peroxidase-conjugated secondary antibody or IRDye® 680RD goat anti-rabbit/mouse secondary antibodies were carried out for 60-120 min at room temperature. The immunoreactive proteins were then detected using the ECL system or the Odyssey infrared imaging system (LI-COR). Films showing immunoreactive bands were scanned by Hp Scanjet 5590.
For orientation: In western blotting, separated proteins are transferred to a membrane and probed.

For data set [1], the system named is S. typhimuium and E. coli. Description: Bacterial reverse mutation test, all tested strains (summary). More on the design: species or system Salmonella typhimuium and Escherichia coli. As to conditions: 400 μM. The protocol: The bacterial reverse mutation test uses amino acid requiring strains of Salmonella typhimuium and Escherichia coli (E. coli) to detect chemical substances that can produce genetic damage and lead to gene mutations. The mutagenic potential of 1011 and 1015 and their metabolites was assessed by exposing bacterial strains to the compounds and evaluating at 400 μM, and evaluating the numbers of revertant colonies grown in the absence (trace quantities) of the amino acid.
Ames test: According to the OECD Guidelines For Testing Of Chemicals, experiments with the tested agents, positive and negative controls, were conducted in triplicates on 6 tester strains, S. typhimurium: TA98, TA100, TA1535, TA1537 and E. coli: wp2[pKM101]+wp2 uvrA mixed 1:2. Dimethyl sulfoxide (DMSO) was used as the vehicle control for all tester strains in mutagenicity assay with and without metabolic activation. […]
The tester strain (10 μl of overnight culture) was mixed with the test agent (10 μl of the DMSO stock) and GM liquid medium (30 μl) or S9 mix (30 μl). […] The results were expressed as number of revertant colonies per plate. […]

The next data set relates to LRP6. As to the kind of experiment: Endogenous LRP6 expression in N2a cells by Western blotting. As to conditions: 0.8 and 1.6 μM, 24 h. In kind it is cell-based. The protocol: (A) HT1080 cells stably transduced with human LRP6 with HA tag were treated with niciosamide (1 μM) and other compounds as noted (1 μM) for 24 hr. The levels of HA-LRP6 were examined by Western blots with anti-HA antibody. All samples were also probed with anti-actin antibody to verify equal loading. This experiment is a representative of two such experiments performed with similar data. (B) N2a cells were treated with 1015 and 1011 at the indicated concentrations for 24 h. The expression levels of LRP6, β-catenin and actin were examined by Western blotting. This experiment is a representative of three such experiments performed with similar data. (C) HEK293 cells were transfected with LRP6 siRNAs, and after 8 h incubation were further transfected with Super8XTOPFlash construct and β galactosidase-expressing vector. […] The luciferase activity was then measured and normalized to β-galactosidase activity. […]
Western blotting: Cells in 6-well plates were lysed in 0.5 ml of lysis buffer (phosphate-buffered saline containing 1% Triton X-100, 1× Proteinase inhibitor cocktail Complete, and 1 mM PMSF) at 4° C. for 15 min. Equal quantities of protein were subjected to SDS-PAGE under reducing conditions. […] The immunoreactive proteins were then detected using the ECL system or the Odyssey infrared imaging system (LI-COR). […]

Another data set has as its system hCMEC/D3 cells. Description: Cell viability assay (CellTiter-Glo) in hCMEC/D3 cells. In kind it is cell-based, human. As to conditions: hCMEC/D3 cells, 0.3, 1, 3, 10 and 30 μM, 24 h. The protocol:
The human brain endothelial capillary hCMEC/D3 cells were cultured with compounds at the indicated concentrations for 24 h. Cell viability was assessed by the Cell TitreGlo Assay system from Promega. Data represent mean±SD from three independent experiments. *P<0.05.
Cell viability assay: Human blood-brain barrier hCMEC/D3 cells were seeded into 96-well tissue culture treated microtiter plates at a density of 20,000 cells/well. After 24 h incubation, the cells were treated with the test compounds at the indicated concentrations for 24 h. Cell viability was measured by the CellTiter-Glo Assay (Promega), which is a luminescent assay that is an indicator of live cells as a function of metabolic activity and ATP content.
On the technique in general: In ATP-based viability assays light output follows the ATP content of the culture.

For the compound `CC(=O)Nc1ccc(C(=O)Nc2ccccc2N)cc1` [CI-994, 4-(acetylamino)-N-(2-aminophenyl)benzamide, reference compound], the β-catenin levels result in the data set on β-catenin (CI-994 at the indicated concentration) was “significantly increased”.
What is called EC50 is the midpoint of the concentration-response curve. As for `CC1CCCC(C)N1CCNC(=O)c1ccc(C(=O)Nc2ccccc2N)nc1` (stereo not shown) [Compound 1011], in data set [1], the “mutagenic effects of test compounds and their metabolites” value is “no mutagenic effects”. The “endogenous LRP6 expression” value in the data set on LRP6 is listed as “significantly enhanced”. The “cytotoxicity (cell viability)” value in the data set on hCMEC/D3 cells is “not toxic at all the tested concentrations”. Besides, in the data set with β-catenin, the β-catenin level entry was “significantly enhanced” and the EC50 turned out to be 930 ± 10 nM.
As for `Nc1ccccc1NC(=O)c1ccc(C(=O)NCC2CCN2C2CCCC2)cn1` (stereo not shown) [Compound 1015], the “mutagenic effects of test compounds and their metabolites” value in data set [1] is reported as “no mutagenic effects”. In addition, the “endogenous LRP6 expression” value in the data set on LRP6 is “significantly enhanced”. For the same compound, the “cytotoxicity (cell viability)” value in the data set on hCMEC/D3 cells is given as “not toxic at or below the 10 μM concentration”. In addition, in the data set on β-catenin, the β-catenin level result was “significantly enhanced” and the EC50 was 960 ± 140 nM.
For the compound `Nc1ccccc1NC(=O)c1ccc(C(=O)NCCN2CCC3(CCCCC3)CC2)cc1` [Compound 1020], in the data set on β-catenin, the β-catenin level entry was “significantly enhanced” and the EC50 amounted to 1020 ± 240 nM.
